Measured values: article PMC6737539 (Journal of medicinal chemistry, 2019)
Like-named read-outs stand apart in the source and are kept apart here. Blank lines part the entries; values can stand above or below the molecule they belong to.

What was measured:
[1] = Liver microsomal metabolic stability, rat; type: in vitro ADME; details: 10 μM, 30 min
[2] = tested on: serum RBP4; details: mice; cited from earlier work
[3] = Liver microsomal metabolic stability, human; type: in vitro ADME; details: 10 μM, 30 min
[4] = target: RBP4 (Homo sapiens, UniProt P02753); experiment: RBP4 scintillation proximity assay; type: binding; details: for binding to RBP4 (competition binding): purified human RBP4, 10 nM 3H-retinol radioligand
[5] = Liver microsomal metabolic stability, mouse; type: in vitro ADME; details: 10 μM, 30 min
[6] = lipophilic ligand efficiency: RBP4 SPA pIC50 − cLog P

Compound: Cc1cc(C(=O)O)nc(N2C[C@H]3CC(c4ccccc4C(F)(F)F)C[C@H]3C2)n1 (stereo partly shown) [Compound 5]
serum RBP4 lowering [2]: 90%

Compound: CC(C)n1nc(C(=O)N2CCC(c3ccccc3C(F)(F)F)CC2)c2ccc(F)cc21 [Compound 20, (6-Fluoro-1-isopropyl-1H-indazol-3-yl)(4-(2-(trifluoromethyl)-phenyl)piperidin-1-yl)methanone]
LLE [4]: 2.03

Compound: CC/C=C\C/C=C\C/C=C\C/C=C\C/C=C\C/C=C\CCC(=O)O [docosahexaenoic acid, reference compound]
binding to RBP4 (competition binding) [4]: weak RBP4 ligands

Compound: CCCCC/C=C\C/C=C\CCCCCCCC(=O)O [linoleic acid, reference compound]
binding to RBP4 (competition binding) [4]: weak RBP4 ligands

Compound: CCCCCCCC/C=C\CCCCCCCC(=O)O [oleic acid, reference compound]
binding to RBP4 (competition binding) [4]: weak RBP4 ligands

Compound: CCCCCCCCCCCCCCCC(=O)O [palmitic acid, reference compound]
binding to RBP4 (competition binding) [4]: weak RBP4 ligands

Second part, the molecule after the results:

Microsomal Stability (% remaining) RLM [1]: 85 % remaining
Compound: O=C(O)c1ccccc1NC(=O)N1CCC(c2ccccc2C(F)(F)F)CC1 [Compound 3, reference compound]

Microsomal Stability (% remaining) HLM [3]: 0.7 % remaining
LLE [4, 6]: 4.56
Microsomal Stability (% remaining) RLM [1]: 0.0 % remaining
Microsomal Stability (% remaining) MLM [5]: 0.2 % remaining
Compound: Cn1nc(C(=O)N2CCC(c3ccccc3C(F)(F)F)CC2)c2ccccc21 [Compound 12, (1-Methyl-1H-indazol-3-yl)(4-(2-(trifluoromethyl)phenyl)-piperidin-1-yl)methanone]

LLE [4, 6]: 3.01
Compound: COc1ccc2[nH]nc(C(=O)N3CCC(c4ccccc4C(F)(F)F)CC3)c2c1 [Compound 17, (5-Methoxy-1H-indazol-3-yl)(4-(2-(trifluoromethyl)phenyl)-piperidin-1-yl)methanone]

LLE [4, 6]: 5.89
Compound: N#Cc1ccc2nnc(C(=O)N3CCC(c4c(F)cccc4C(F)(F)F)CC3)n2c1 [Compound 64, 3-(4-(2-Fluoro-6-(trifluoromethyl)phenyl)piperidine-1-carbonyl)-[1,2,4]triazolo[4,3-a]pyridine-6-carbonitrile]
